Source: patent US5877210A, “Phosphotyrosine phosphatase inhibitors or phosphotyrosine kinase activators for controlling cellular proliferation” (priority 1995, dated 1999)
pIC50: −log10 of the molar value. Entries after “also recorded” stand apart in the source; their conditions may differ. Where two headings read alike, the source gives them in different places.

Columns and labels:
[1] = molecular target: T1, PTP1B (Homo sapiens, UniProt P18031); test: Phosphotyrosine phosphatase PTP1B inhibition; assay type: biochemical
T1 construct: purchased Upstate Biotechnology, Lake Placid, N.Y
T1 sequence (P18031 1-435): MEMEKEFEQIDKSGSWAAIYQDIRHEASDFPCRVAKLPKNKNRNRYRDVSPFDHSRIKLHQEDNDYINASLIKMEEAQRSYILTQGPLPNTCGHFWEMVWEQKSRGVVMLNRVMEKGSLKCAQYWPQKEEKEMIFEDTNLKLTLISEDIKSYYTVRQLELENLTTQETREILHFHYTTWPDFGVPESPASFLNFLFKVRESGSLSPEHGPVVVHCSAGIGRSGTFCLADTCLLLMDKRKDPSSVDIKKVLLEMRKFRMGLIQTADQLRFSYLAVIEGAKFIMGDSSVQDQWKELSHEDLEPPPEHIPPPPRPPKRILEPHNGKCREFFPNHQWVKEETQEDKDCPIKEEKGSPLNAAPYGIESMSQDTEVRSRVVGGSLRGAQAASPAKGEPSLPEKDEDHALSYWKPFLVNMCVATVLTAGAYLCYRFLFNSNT

[2] = tested on: CEM; test: Anti-phosphotyrosine immunoblot; assay type: cell-based, human; settings: 16 hr
[3] = tested on: CEM; test: Apoptosis: DNA fragmentation on agarose gel; assay type: cell-based, human
Description: (§1) For these experiments, cell samples (2×10^6 cells) were centrifuged at 200× g, the media removed by aspiration and the cell pellets stored at -70° C. until processing. Cell pellets were resuspended in 300 μl digestion buffer (100 mM NaCl, 10 mM Tris-HCl, pH 8.0, 25 mM EDTA, 0.5% SDS, 0.1 mg/ml protease K) and incubated for 12 hours at 50° C. DNase-free ribonuclease (5 μg) in 200 μl TE buffer (10 mM Tris-HCl, pH 7.5, 1 mM EDTA) was added to each sample followed by incubation for 2 hours at 37° C. DNA was then extracted once with phenol:chloroform, once with chloroform and then precipitated with 0.5 volumes of ammonium acetate and 2 volumes of ethanol at -70° C. for 12 hours. The precipitated DNA was resuspended in 200 μl TE buffer and quantitated by absorbance at 260 nanometers. The DNA (15 μg) was applied to a 1.3% agarose gel in TBE buffer (89 mM Tris base, 89 mM boric acid, 2 mM EDTA) resolved at 20 mA constant current and the DNA was visualized by staining with ethidium bromide. Fragmented DNA due to apoptosis appeared as a ladder of bands on the gel.

[4] = tested on: HL60; test: Apoptosis: DNA fragmentation on agarose gel; assay type: cell-based, human; settings: dose dependent
Description: as §1

[5] = tested on: Jurkat; test: Apoptosis: DNA fragmentation on agarose gel; assay type: cell-based, human
Description: as §1

[6] = tested on: Ramos B cell lymphoma cells; test: Apoptosis: DNA fragmentation on agarose gel; assay type: cell-based, human; settings: 10 μM, by 48 hours
Description: as §1

[7] = tested on: pp60^c-src; test: pp60c-src kinase activity in colon carcinoma cell lines; assay type: cell-based; settings: two colon carcinoma cell lines expressing Src; dose-dependent
From the text: Many colon carcinomas are known to express the Src oncogene product at high levels.

[8] = tested on: ZAP-70; test: ZAP-70 tyrosine phosphorylation in T cells; assay type: cell-based; settings: 16 h BMLOV, anti-CD3 stimulation
Description: In the experiments shown in FIG. 25, human PHA-induced T cell blasts were treated overnight with the indicated concentrations of BMLOV. In Panel A, the baseline level of intracellular free Ca^2+ ([Ca^2+ ]i) was established for 1 min, and then the cells were treated with biotinylated anti-CD3 mAb (G19-4). After 5 min avidin was added (gap in the trace) to cross-link the antibody. In Panel B, assays were performed as in Panel A, but in the presence of 5 mM EGTA. […] In the experiments shown in FIG. 26, cells were treated 16 h with BMLOV and then stimulated with anti-CD3 mAb G19-4 for 5 min. Cells were then washed and resuspended in fresh media at equal concentrations of BMLOV at 37° C. Cells were then harvested and lysed at times following the initiation of CD3 stimulation as indicated. Antibody binding in immunoblots was detected by ECL.

[9] = tested on: REH, Ramos, CEM, Jurkat, HL-60, and THP-1; test: [3H]thymidine incorporation, cell line panel (FIG. 17); assay type: cell-based; settings: 5 μM pV(phen), 5 days
Description: Similar results are shown in FIG. 17 for the cell lines REH, Ramos, CEM, Jurkat, HL-60, and THP-1. Cells were treated 5 days with the amount of inhibitor indicated and [^3 H]-thymidine incorporation was then measured to determine proliferation. The percent inhibition was calculated relative to untreated controls. Results are shown for three concentrations of BMLOV (5 μM, 10 μM, and 25 μM and 5 μM of pV(phen)).

[10] = tested on: subcutaneously implanted human ovarian carcinoma, A2780; test: In vivo antitumor test, A2780
Description: Finally, pV(phen) was tested against subcutaneously implanted human ovarian carcinoma, A2780, in Experiment No. 54, using a treatment schedule of once daily for 9 days. Treatments (i.p.) were begun on day 10 post implant when the tumors were small but definite, e.g. […]

[11] = tested on: A2780/Tax22; test: In vitro cytotoxicity, XTT assay
Description: (§2) The vanadate compound pV(phen) was tested for in vitro cytotoxicity in a panel of human tumor cell lines. The cell lines used were a human colon carcinoma cell line, HCT116, and two drug-resistant sublines. The HCT116(VM46) subline was selected for resistance to VM-26 and expresses the multidrug resistant (MDR) phenotype including resistance to lipophilic anticancer drugs such as paclitaxel, VP-16, VM-26, doxorubicin, and vinblastine. This cell line overexpresses P-glycoprotein, a cell surface drug efflux pump, which limits accumulation of anticancer drugs such as the ones mentioned above. […] The compound pV(phen) was also evaluated in the ovarian carcinoma cell line A2780 and a paclitaxel resistant subline A2780-Tax22.
(§3) In the cytotoxicity assays, cells were plated and 24 hr later drugs were added and serially diluted. After 72 hr of continuous drug exposure, the tetrazolium dye XTT was added. A dehydrogenase enzyme in live cells reduces the XTT to a form that absorbs light at 450 nm which can be quantitated spectrophotometrically. The greater absorbance, the greater is the number of live cells. The results are expressed as a IC50 which is a drug concentration required to inhibit cell proliferation (i.e., absorbance at 450 nm) to 50% of that of untreated control cells.

[12] = tested on: HCT116(VM)46; test: In vitro cytotoxicity, XTT assay
Description: as §2, §3

[13] = tested on: HCT116(VP)35; test: In vitro cytotoxicity, XTT assay
Description: as §2, §3

[14] = Expt. 54, OD 12 mg/kg/inj, qdx9;10, ip

Row | Compound | pIC50 [1] | pIC50 ([1]; Table 1, phosphorylated myelin basic protein substrate) | pIC50 ([1]; Table 8) | induction of tyrosine phosphorylation [2] | induction of apoptosis (DNA fragmentation) [3] | induction of apoptosis (DNA fragmentation) [4] | induction of apoptosis (DNA fragmentation) [5] | induction of apoptosis (DNA fragmentation) [6] | pp60c-src activity [7] | tyrosine phosphorylation of ZAP-70 or the associated zeta chain [8] | inhibition of proliferation, in words [9] | LCK (log cell kill) [10, 14] | T-C (delay in primary tumor growth) [10, 14] [days] | MTD ([10]; once daily for 9 days, i.p., cumulative dose of 45 mg/kg) [mg/kg per injection] | pIC50 ([11]; a2780/tax22 cells, 72 h) | fold resistance relative to parental cell line ([11]; vs A2780, 4320 min) [fold] | pIC50 ([12]; hct116(vm46) cells, 72 h) | fold resistance relative to parental cell line ([12]; vs HCT116, 4320 min) [fold] | pIC50 ([13]; hct116(vp35) cells, 72 h) | fold resistance relative to parental cell line ([13]; vs HCT116, 4320 min) [fold]
1 | Cc1occc(=O)c1[O-].Cc1occc(=O)c1[O-].[O]=[V+2] [BMLOV, Bis(maltolato)oxovanadium (IV)] | ~7.60 | 7.59 | 7.59 | only low levels of tyrosine phosphorylation | apoptosis was not observed; also recorded: DNA fragmentation was not observed | Apoptosis was also observed to be induced; also recorded: DNA fragmentation was also induced | apoptosis was not observed; also recorded: DNA fragmentation was not observed | induced apoptosis; also recorded: induced extensive DNA fragmentation | strongly inhibited | little effect was observed | – | – | – | – | – | – | – | – | – | –
2 | [Na+].[O]=[V-]12([O][O]1)[O][O]2.c1cnc2c(c1)ccc1cccnc12 [pV(phen), sodium (1,10-phenanthroline) oxodiperoxovanadium (V)] | – | – | – | – | – | – | – | – | – | – | inhibits all cell types studied | 0.4 | 4.0 | 5 | 5.12 | 0.9 | 5.70 | 0.2 | 5.14 | 0.9
